Here are results for seven molecules from patent US11814352B2, “Salts formed by 2-(1-acyloxy-n-pentyl) benzoic acid and basic amino acid or aminoguanidine, and preparation method and application thereof” (JIANGSU KANION PHARMACEUTICAL CO., LTD., priority 2018, dated 2023).

One data set deals with MCAO rats. Description: Cerebral infarction, cerebral edema and nerve function of rats with focal cerebral ischemia (MCAO). The data set is classed as in vivo, SD rats. On the procedure:
The total number of the animals was 88.
Sham operation group: equal volume of normal saline (containing 1% DMSO) (iv. 3 days), TTC, cerebral edema and neurological function score (n=8); […]
The middle cerebral arteries of the rats were blocked by a suture-occluded method, and reperfused after 2 h. […] All drugs were formulated into normal saline solutions containing 1% DMSO for administration, and the duration of administration was controlled at approximately 1 min. […] 2 h after the last administration, the neurological defect scores were firstly obtained, and then the rats of each group were sacrificed. The whole brains were taken out and weighed (wet weight), TTC stained, and dried to determine the effects of the compounds on cerebral infarction and cerebral edema.
2 h after the last administration, the neurological defects of the animals were graded and scored by the Longa's method.
After the neurobehavioral examination was completed, four coronal incisions were made on the whole brains of the rats on the optic chiasma and 2 mm anteroposterior positions of the optic chiasma. After the whole brains were cut into five slices, the brain slices were quickly placed in 5 ml of phosphate buffer solution containing 2% TTC, and incubated at 37° C. in the dark. In the incubation process, the brain slices were turned once every 5 min. After 10 min of incubation, the brain slices were taken out and pictures were taken with a digital camera (Olympus C-4000, Japan).
The calculation formula of brain water content is as follows: Water content of brain tissue (%)=(wet weight of brain tissue−dry weight of brain tissue)/wet weight of brain tissue×100%; Cerebral edema rate (%)=water content of brain tissue of each group (%)−water content of brain tissue of sham operation group (%)/water content of brain tissue of sham operation group (%)×100%; Inhibition rate of cerebral edema (%)=(rate of cerebral edema of model group (%)−rate of cerebral edema of administration group (%))/rate of cerebral edema of model group (%)×100%.

The conditions of data set [1]: literature value; cited from earlier work.
In data set [2] the test system is ADP induced platelet aggregation. Description: In vitro anti-platelet aggregation, ADP induced (turbidimetry, PRP). It counts as cell-based, rabbits. On the procedure:
(§1) The animals were used for experiments after 1 week.
(§2) The common carotid artery was separated, and a polyethylene tube was inserted into the common carotid artery to collect blood. […] The upper beige suspension was pipetted to obtain the platelet-rich plasma (PRP). […] The PRP was adjusted with the PPP to make the platelet count at 1×10^8/mL.
(§3) 260 μL of platelet-rich plasma (PRP) was added into a turbidimetric tube. Then 10 μL of test compounds with different concentrations, positive control drugs or normal saline were separately added, and the plasma was incubated at 37° C. for 5 min. Then 30 μL of inducers were added in sequence. The final concentration of an inducer ADP is 10 μM, and the final concentration of an inducer AA is 1 mM. […] Inhibition rate of platelet aggregation (IRPA)=(platelet aggregation rate of the control group−platelet aggregation rate of the experimental group)/platelet aggregation rate of the control group×100%.

The test system of data set [3] is AA induced platelet aggregation. Description: In vitro anti-platelet aggregation, AA induced (turbidimetry, PRP). The data set is classed as cell-based, rabbits. On the procedure: as §1, §2, §3
Data set [4] deals with arteriovenous bypass thrombosis in rats. Description: Effect on arteriovenous bypass thrombosis in rats. The data set is classed as in vivo, SD rats. Particulars: 10 mg/kg/day tail vein 7 days; for Dry weight of thrombus / Wet weight of thrombus: 2 h after last dose; for inhibition at 10 mg/kg/day: Rattus norvegicus, 168 h. On the procedure: Male SD rats, weighing 250-280 g, purchased from Beijing Vital River Laboratory Animal Technology Co., Ltd., raised in an SPF breeding environment with indoor temperature controlled at 23±2° C., and allowed to freely eat and drink. The total number of the animals is 64.
Model group: injected with the same volume of normal saline (containing 1% DMSO) through the tail vein, and administered continuously for 7 days. The test was started 2 h after the last dose (n=8).
The dose of all drugs was 10 mg/kg/day. The drugs were formulated into normal saline solutions containing 1% DMSO, and injected through the tail vein for 7 consecutive days. The test was started 2 hours after the last dose (n=8).
The rats were intraperitoneally injected with a 3% pentobarbital sodium solution (30 mg/kg). After anesthesia, the rats were immobilized in the supine position, and a median cervical incision was made to separate the right common carotid artery and left external jugular vein. A 6 cm long suture was put in the middle of a polyethylene tube (the suture needs to be weighed before being put in the tube), and the polyethylene tube was filled with heparin saline (50 U/mL). The polyethylene tube was inserted into the separated blood vessels to make the artery and vein form a loop. After 15 min of circulation of the blood flow, the suture was taken out, and the suture with thrombus was collected and weighed immediately. Then, after the suture was dried at room temperature for 24 h, the dry weight was determined. The total weight minus the weight of the suture was the wet weight of the thrombus, and the dry weight minus the weight of the suture was the dry weight of the thrombus.

A short description of data set [5]: Solubility test (saturated solubility in water). The conditions noted are these: 25±2° C. It counts as physicochemical. On the procedure:
Test method: 10 mg of a test sample (solid was ground into fine powder) was weighed and added to a certain amount of solvent at 25±2° C. (the temperature of a water bath is controlled at 25° C.), and the solution was shaken vigorously for 30 s every 5 min. The dissolution was observed within 30 min. When there were no visible solute particles or droplets, the test sample was regarded as completely dissolved.

Data set [6] has as its system bleeding time in mice after tail cutting. In words: Effect on bleeding time in mice after tail cutting. The data set is classed as in vivo, Kunming mice. The conditions noted are these: 5 mg/kg orally once a day for 14 days, 1 h after last dose. On the procedure:
SPF Kunming mice, weighing 18-22 g, purchased from Beijing Vital River Laboratory Animal Technology Co., Ltd., having a certificate number of SCXK (Beijing) 2010-0002, raised in an SPF animal room with indoor temperature controlled at 23±2° C., and allowed to freely eat and drink. The day and night time was 12 h/12 h.
The administration dose level of the positive drug groups and the test drug groups was 5 mg/kg, and the same amount of normal saline was given to the negative control group. All mice were administered for 14 consecutive days orally once a day. One hour after the last dose, the mice were anesthetized with 1-2% isoflurane, and the tails were cut for 5 mm. The tips of the tails were absorbed dry with filter paper every 30 seconds until the bleeding stopped naturally. Bleeding time is defined as the interval between the start and stop of bleeding.

The nature of data set [7]: Pharmacokinetics of metabolites in rat plasma after intravenous injection of I1s. The conditions noted are these: metabolite in rat plasma after I1s 25 mg/kg tail vein, rats 1-3. It counts as in vivo, SD male rats. On the procedure: (§4) 12 clean SD male rats, provided by Qinglongshan Animal Breeding Farm in Jiangning District, Nanjing. The production license number is SCXK (Jiangsu) 2017-0001. The body weight of the rats ranges from 180 to 220 g. The rats were used after being raised in the laboratory of an experimental animal center for 2 days after purchase, fasted for 12 hours before administration and 6 hours after administration, and were allowed to freely drink during the test period.
(§5) The concentration of the original drugs and metabolites in the rat blood were determined by LC-MS/MS, and WinNonlin pharmacokinetics professional software and a statistical moment method were used for calculation to obtain the corresponding pharmacokinetic parameters.

A short description of data set [8]: Concentration of metabolites in rat brain tissue after intravenous injection of I1s. The conditions noted are these: male, Sprague-Dawley, rat, brain, iv, 25 mg/kg; for concentration at 0.5 h: 0.5 h after intravenous injection of I1s; for concentration at 1 h: 1 h after intravenous injection of I1s. It counts as in vivo.
Test in data set [9]: as above
The data set is classed as in vivo. On the procedure:
as §4, §5

Setting [10] is: iv 2 h after the beginning of reperfusion, 5 mg/kg.
Where [11] appears, read: iv at the beginning of reperfusion, 5 mg/kg.
Where [12] appears, read: read-out: IC50 ADP (10 μM), rabbit PRP, inducer ADP 10 μM, 37° C.
Where [13] appears, read: read-out: IC50 AA (1 mM), rabbit PRP, inducer AA 1 mM, 37° C.
Where [14] appears, read: MCAO rats, 10 mg/kg/day iv 3 days (combinations equimolar), first dose 2 h after reperfusion.
Setting [15] is: male, Sprague-Dawley, rat, plasma, iv, 25 mg/kg.
The mark [16] stands for this setting: read-out: Concentration in brain tissue (single rats).
Where [17] appears, read: read-out: Concentration in brain tissue, Mean.
[18] abbreviates: 6 h after intravenous injection of I1s.

“And” between values parts separate entries of the source, which are not always exact repeats. Equal entries are not always repeated. Structures can show the parent of a compound that is named as a salt. Where two headings read alike, the source gives them in different places.

Broadly, the melting point is the temperature, or range, at which the solid turns liquid. Molecule `CCCCC(OC(=O)CC)c1ccccc1C(=O)O` (racemic) (as salt: salt) [I2, L-Arginine (R/S)-2-(1-Propionyloxy-n-Pentyl) Benzoate] had a melting point of 169 to 171 °C.

`CCCCC(OC(=O)CCC)c1ccccc1C(=O)O` (racemic) (as salt: salt) [I3, L-Arginine (R/S)-2-(1-N-Butyryloxy-n-Pentyl) Benzoate]: the melting point fell in the range of 152 to 153 °C.

The term half-life denotes the time in which the quantity being followed falls by half. Broadly, the IC50 is the concentration that inhibits the measured activity by half. With `CCCCC1OC(=O)c2ccccc21` (racemic) [(R/S)-NBP, racemic (R/S)-3-N-butyl-1(3H)-isobenzofuranone], in the data set with MCAO rats (setting [10]), the Cerebral edema was found to be 6.72 ± 4.05%, the Infarct volume was 36.50 ± 7.58%, the “Inhibition rate of cerebral edema” value is on record as 28.80% and the “Inhibition rate of infarct volume” value is 26.43%. Further, in the data set on MCAO rats (setting [11]), the Cerebral edema is listed as 5.80 ± 1.83%, the Infarct volume came to 28.55 ± 8.25%, the “Inhibition rate of cerebral edema” value stood at 40.21% and the “Inhibition rate of infarct volume” value is 41.96%. The half-life in data set [1] is reported as 44 min. Moreover, in data set [2] (setting [12]), the IC50 stood at 1360 ± 130 µM. Also, the IC50 in data set [3] (setting [13]) came to 600 ± 70 µM.

For the molecule `CCCCC(O)c1ccccc1C(=O)[O-].[K+]` (racemic) [PHPB, Potassium (R/S)-2-(1-hydroxy-n-pentyl) benzoate], in the data set with MCAO rats (setting [14]), the Cerebral edema came out at 10.71 ± 3.55%, the Infarct volume was found to be 20.23 ± 3.02%, the “Inhibition rate of cerebral edema” value stood at 33.23% and the “Inhibition rate of infarct volume” value came to 51.66%. The half-life in data set [1] was 45 min. The IC50 in [2] (setting [12]) came to 960 ± 70 µM. Moreover, the IC50 in [3] (setting [13]) was 350 ± 90 µM. Moreover, in data set [4], the “Dry weight of thrombus” value stood at 8.90 ± 0.45 and the “Wet weight of thrombus” value amounted to 30.64 ± 10.21. In data set [4] (vs model group), the “Inhibition rate (dry weight of thrombus)” value is on record as 11.32% and the “Inhibition rate (wet weight of thrombus)” value is listed as 15.39%. In [5], the “Saturated solubility in H2O, Mean” value was determined as 147.07 mg/mL; the “Saturated solubility in H2O, dissolved sample amount (single determinations)” value is 148.30 mg/mL and 148.04 mg/mL and 145.97 mg/mL and 145.98 mg/mL.

One may read the inhibition as the relative decrease from the control value, in per cent. With `CC(=O)Oc1ccccc1C(=O)O` [Aspirin], the Bleeding time in data set [6] was determined as 22.52 ± 1.31 min. Also, the IC50 was 780 ± 50 µM in data set [2] (Oryctolagus cuniculus, Platelet, read-out: IC50 ADP (10 μM), rabbit PRP, inducer ADP 10 μM, 37° C.) and 160 ± 10 µM in [3] (Oryctolagus cuniculus, Platelet, read-out: IC50 AA (1 mM), rabbit PRP, inducer AA 1 mM, 37° C.). The “Dry weight of thrombus” value in data set [4] was determined as 6.06 ± 0.46. In [4], the “Wet weight of thrombus” value is given as 21.46 ± 1.76. The inhibition at 10 mg/kg/day came out at 39.7% in data set [4] (vs model group, read-out: Inhibition rate (dry weight of thrombus)) and 40.7% in [4] (vs model group, read-out: Inhibition rate (wet weight of thrombus)).

Regarding `COC(=O)[C@H](c1ccccc1Cl)N1CCc2sccc2C1` [Clopidogrel], in [6], the Bleeding time is on record as 25.28 ± 0.48 min.

What is called AUC(0-inf) is total exposure, with the tail of the curve extrapolated. In general, clearance refers to a measure of how efficiently the substance is removed, as volume per time. A word on the AUC(0-t): it is the area under the concentration-time curve up to a stated or last time point. In general, Cmax refers to the maximum level reached in the sampled fluid or tissue. For `CCCC[C@H](O)c1ccccc1C(=O)O` [M3, (S)-2-(1-hydroxy-n-pentyl)benzoic acid], in [7] (setting [15]), the AUC(0-inf) came out at 624 ng·h/mL. Moreover, in data set [7] (setting [15]), the clearance is 668 mL/min/kg. In addition, the AUC(0-t) was 518 ng·h/mL in data set [7] (male, Sprague-Dawley, rat, plasma, iv, 25 mg/kg, read-out: AUC(0-t)); 577.8 ng·h/mL and 492.6 ng·h/mL in data set [7]. In addition, the Cmax was 737 ng/mL in data set [7] (male, Sprague-Dawley, rat, plasma, iv, 25 mg/kg, read-out: Cmax); 876.5 ng/mL and 569.2 ng/mL in [7]. The “AUC(0-∞)” value in [7] is 673.9 ng·h/mL and 858.7 ng·h/mL. The Cl in [7] was 618.2922 mL/min/kg and 485.2238 mL/min/kg. For the same molecule, the concentration at 0.5 h in [8] (setting [16]) came to 76.8 ng/g; in [8] (setting [17]), 111 ng/g. Besides, the concentration at 1 h in data set [8] (setting [16]) worked out at 35.5 ng/g; in data set [8] (setting [17]), 35.9 ng/g. Moreover, the concentration at 6 h in data set [8] (setting [18]) worked out at 31.5 ng/g; in data set [9] (male, Sprague-Dawley, rat, brain, iv, 25 mg/kg, 6 h after intravenous injection of I1s, read-out: Concentration in brain tissue (single rats)) it was 31.1 ng/g. Besides, the “Concentration in brain tissue (single rats)” value was 118.09 ng/g and 137.01 ng/g in data set [9] (0.5 h after intravenous injection of I1s); 39.47 ng/g and 32.78 ng/g in data set [9] (1 h after intravenous injection of I1s); 31.33 ng/g and 32.14 ng/g in data set [9] (setting [18]). Besides, in [9] (detected in rat brain tissue after iv I1s), the “Passage through the blood-brain barrier” value is “could all pass through the blood-brain barrier”.
